From US9247741B2, “Use of macrocyclic picolinamides as fungicides” (DOW AGROSCIENCES LLC, priority 2013, dated 2016)

Legend:
Assay type in all cases: in vivo
[1] = system: Magnaporthe grisea; Anamorph: Pyricularia oryzae; settings: 1 Day Protectant, 100 ppm, rice
Alternaria solani = experiment: Tomato early blight (ALTESO) disease control; settings: 24 h, 1 Day Protectant, read-out: ALTESO disease control rating
Description: Technical grades of materials were dissolved in acetone, which were then mixed with nine volumes of water containing 110 ppm Triton X-100. The fungicide solutions were applied onto wheat seedlings using an automated booth sprayer to run-off. All sprayed plants were allowed to air dry prior to further handling. All fungicides were evaluated using the aforementioned method for their activity vs. all target diseases. Wheat leaf blotch and brown rust activity were also evaluated using track spray applications, in which case the fungicides were formulated as EC formulations, containing 0.1% Trycol 5941 in the spray solutions. Wheat plants (variety Yuma) were grown from seed in a greenhouse in 50% mineral soil/50% soil-less Metro mix until the first leaf was fully emerged, with 7-10 seedlings per pot. These plants were inoculated with an aqueous spore suspension of Septoria tritici either prior to or after fungicide treatments. After inoculation the plants were kept in 100% relative humidity (one day in a dark dew chamber followed by two to three days in a lighted dew chamber at 20° C.) to permit spores to germinate and infect the leaf. The plants were then transferred to a greenhouse set at 20° C. for disease to develop. When disease symptoms were fully expressed on the l^st leaves of untreated plants, infection levels were assessed on a scale of 0 to 100 percent disease severity. Percent disease control was calculated using the ratio of disease severity on treated plants relative to untreated plants. Evaluation of Fungicidal Activity: Tomato Early Blight (Alternaria solani; Bayer Code […]) Tomato plants (variety Outdoor girl) were propagated in soil-less Metro mix, with each pot having one plant, and used when 12 to 14 days old. Test plants were inoculated with an aqueous spore suspension of Alternaria solani 24 hr after fungicide treatments. After inoculation the plants were kept in 100% relative humidity (one day in a dark dew chamber followed by two to three days in a lighted dew chamber at 20° C.) to permit spores to germinate and infect the leaf. The plants were then transferred to a growth room at 22° C. for disease to develop. Fungicide formulation, application and disease assessment on the sprayed leaves followed the procedures as described in the Example A.

Cercospora beticola = experiment: Leaf spot of sugar beets (CERCBE) disease control; settings: 24 h, 1 Day Protectant, sugar beet, read-out: CERCBE disease control rating
Description: Technical grades of materials were dissolved in acetone, which were then mixed with nine volumes of water containing 110 ppm Triton X-100. The fungicide solutions were applied onto wheat seedlings using an automated booth sprayer to run-off. All sprayed plants were allowed to air dry prior to further handling. All fungicides were evaluated using the aforementioned method for their activity vs. all target diseases. Wheat leaf blotch and brown rust activity were also evaluated using track spray applications, in which case the fungicides were formulated as EC formulations, containing 0.1% Trycol 5941 in the spray solutions. Wheat plants (variety Yuma) were grown from seed in a greenhouse in 50% mineral soil/50% soil-less Metro mix until the first leaf was fully emerged, with 7-10 seedlings per pot. These plants were inoculated with an aqueous spore suspension of Septoria tritici either prior to or after fungicide treatments. After inoculation the plants were kept in 100% relative humidity (one day in a dark dew chamber followed by two to three days in a lighted dew chamber at 20° C.) to permit spores to germinate and infect the leaf. The plants were then transferred to a greenhouse set at 20° C. for disease to develop. When disease symptoms were fully expressed on the l^st leaves of untreated plants, infection levels were assessed on a scale of 0 to 100 percent disease severity. Percent disease control was calculated using the ratio of disease severity on treated plants relative to untreated plants. Evaluation of Fungicidal Activity: Leaf Spot of Sugar Beets (Cercospora beticola; Bayer Code CERCBE) Sugar beet plants (variety HH88) were grown in soil-less Metro mix and trimmed regularly to maintain a uniform plant size prior to test. Plants were inoculated with a spore suspension 24 hr after fungicide treatments. Inoculated plants were kept in a dew chamber at 22° C. for 48 hr then incubated in a greenhouse set at 24° C. under a clear plastic hood with bottom ventilation until disease symptoms were fully expressed. Fungicide formulation, application and disease assessment on the sprayed leaves followed the procedures as described in the Example A.

Rhyncosporium secalis = experiment: Barley scald (RHYNSE) disease control; settings: Hordeum vulgare, 24 h, 1 Day Protectant, read-out: RHYNSE disease control rating
Description: Technical grades of materials were dissolved in acetone, which were then mixed with nine volumes of water containing 110 ppm Triton X-100. The fungicide solutions were applied onto wheat seedlings using an automated booth sprayer to run-off. All sprayed plants were allowed to air dry prior to further handling. All fungicides were evaluated using the aforementioned method for their activity vs. all target diseases. Wheat leaf blotch and brown rust activity were also evaluated using track spray applications, in which case the fungicides were formulated as EC formulations, containing 0.1% Trycol 5941 in the spray solutions. Wheat plants (variety Yuma) were grown from seed in a greenhouse in 50% mineral soil/50% soil-less Metro mix until the first leaf was fully emerged, with 7-10 seedlings per pot. These plants were inoculated with an aqueous spore suspension of Septoria tritici either prior to or after fungicide treatments. After inoculation the plants were kept in 100% relative humidity (one day in a dark dew chamber followed by two to three days in a lighted dew chamber at 20° C.) to permit spores to germinate and infect the leaf. The plants were then transferred to a greenhouse set at 20° C. for disease to develop. When disease symptoms were fully expressed on the l^st leaves of untreated plants, infection levels were assessed on a scale of 0 to 100 percent disease severity. Percent disease control was calculated using the ratio of disease severity on treated plants relative to untreated plants. Evaluation of Fungicidal Activity: Barley Scald (Rhyncosporium secalis; Bayer code […]) Barley seedlings (variety Harrington) were propagated in soil-less Metro mix, with each pot having 8 to 12 plants, and used in the test when first leaf was fully emerged. Test plants were inoculated by an aqueous spore suspension of Rhyncosporium secalis 24 hr after fungicide treatments. After inoculation the plants were kept in a dew room at 20° C. with 100% relative humidity for 48 hr. The plants were then transferred to a greenhouse set at 20° C. for disease to develop. Fungicide formulation, application and disease assessment on the sprayed leaves followed the procedures as described in the Example A.

For CCCO[C@H]1CCC[C@H](NC(=O)c2nccc(OC)c2OC(C)=O)C(=O)O[C@@H](C)[C@@H]1Cc1ccccc1 [Compound 70], the “PYRIOR disease control rating” value [1] was “A (>70)”, the pest or weed control at 100 ppm (Alternaria solani) was over 70% and the pest or weed control at 100 ppm (Cercospora beticola) was over 70%. The pest or weed control at 100 ppm (Rhyncosporium secalis) was over 70%.
For COc1ccnc(C(=O)N[C@H]2CCC[C@H](OCC3CC3)[C@@H](Cc3ccc(F)cc3)[C@H](C)OC2=O)c1OCOC(C)=O [Compound 61], the “PYRIOR disease control rating” value [1] was “A (>70)”, the pest or weed control at 100 ppm (Alternaria solani) was under 70% and the pest or weed control at 100 ppm (Cercospora beticola) was over 70%. For the same compound, the pest or weed control at 100 ppm (Rhyncosporium secalis) was over 70%.
For CCCC[C@H]1[C@H](C)OC(=O)[C@@H](NC(=O)c2nccc(OC)c2OCOC(C)=O)CCC[C@@H]1OCC1CC1 [Compound 73], the “PYRIOR disease control rating” value [1] was “A (>70)”, the pest or weed control at 100 ppm (Alternaria solani) was under 70% and the pest or weed control at 100 ppm (Cercospora beticola) was over 70%. For the same compound, the pest or weed control at 100 ppm (Rhyncosporium secalis) was over 70%.
For COc1ccnc(C(=O)N[C@H]2CCC[C@H](Oc3ccccc3)[C@@H](CCC(C)C)[C@H](C)OC2=O)c1OC(C)=O [Compound 36], the pest or weed control at 100 ppm (Alternaria solani) was over 70%, the pest or weed control at 100 ppm (Cercospora beticola) was over 70% and the pest or weed control at 100 ppm (Rhyncosporium secalis) was over 70%.
With CCCO[C@H]1CCC[C@H](NC(=O)c2nccc(OC)c2OC(C)=O)C(=O)O[C@@H](C)[C@@H]1CCC(C)C [Compound 74, 2-(((3S,7S,8S,9S)-8-isopentyl-9-methyl-2-oxo-7-propoxyoxonan-3-yl)carbamoyl)-4-methoxypyridin-3-yl acetate] the “PYRIOR disease control rating” value [1] was “A (>70)”, the pest or weed control at 100 ppm (Alternaria solani) was over 70% and the pest or weed control at 100 ppm (Cercospora beticola) was over 70%. It also gave a pest or weed control at 100 ppm (Rhyncosporium secalis) of over 70%.
For CCCC[C@H]1[C@H](C)OC(=O)[C@@H](NC(=O)c2nccc(OC)c2OCOC(C)=O)CCC[C@@H]1Oc1ccccc1 [Compound 33], the “PYRIOR disease control rating” value [1] was “A (>70)”, the pest or weed control at 100 ppm (Alternaria solani) was over 70% and the pest or weed control at 100 ppm (Cercospora beticola) was over 70%. It also gave a pest or weed control at 100 ppm (Rhyncosporium secalis) of over 70%.
CCCO[C@H]1CCC[C@H](NC(=O)c2nccc(OC)c2OCOC(C)=O)C(=O)O[C@@H](C)[C@@H]1CCC(C)C [Compound 25, ((2-(((3S,7S,8S,9S)-8-isopentyl-9-methyl-2-oxo-7-propoxyoxonan-3-yl)carbamoyl)-4-methoxypyridin-3-yl)oxy)methyl acetate] showed a pest or weed control at 100 ppm (Alternaria solani) of over 70%, a pest or weed control at 100 ppm (Cercospora beticola) of over 70% and a pest or weed control at 100 ppm (Rhyncosporium secalis) of over 70%.
For COc1ccnc(C(=O)N[C@H]2CCC[C@H](Oc3ccccc3)[C@@H](CCC(C)C)[C@H](C)OC2=O)c1OCOC(C)=O [Compound 40], the “PYRIOR disease control rating” value [1] was “A (>70)”, the pest or weed control at 100 ppm (Alternaria solani) was over 70% and the pest or weed control at 100 ppm (Cercospora beticola) was over 70%. The pest or weed control at 100 ppm (Rhyncosporium secalis) was over 70%.
